Assay [1] concerns Murine EL-4 lymphoma cell line overexpressing human RORγt. The assay can be described thus: IL-17 secretion from EL4 murine lymphoma. The format is cell-based. Conditions: Mus musculus; human RORγt-transfected EL4 cells, PMA (10 ng/mL) and ionomycin (1 μM), 24 h; read-out: IC50, IL-17 secretion inhibition. As for the experimental part: Murine EL-4 lymphoma cell line overexpressing human RORγt was used in this functional assay to assess compound ability to inhibit IL-17 cytokine secretion.
EL-4 cells are maintained in a standard culture medium RPMI supplemented with 10% fetal calf serum, 1% sodium pyruvate, 1% essential amino acids and 1% antibiotics at 37° C. in a humidified atmosphere of 5% CO02 and 95% air. Culture medium was changed every 2 days. EL4 cells were transfected with a plasmid encoding hRORγt (sequence identical to published sequence NM 001001523). […] Briefly, 1 μg of DNA/1 million cells was served to transfect EL-4 cells. Cell/DNA suspension was transferred into certified cuvette and the electroporation of RORγt plasmid was carried out using appropriate Nucleofector® program.
Cells were seeded in 96 well plates at a density of 150000 cells/I well then treated with compounds of this invention at indicated concentrations and incubated for 24 hours at 37° C. in a humidified atmosphere of 5% C02 and 95% air. EL-4 cells were pretreated with test compounds (RORγ modulators) and stimulated with PMA (10 ng/mL) and ionomycin (1 μM final concentration) in the presence of test compound concentrations for additional 24 h at 37° C. in a humidified atmosphere of 5% C02 and 95% air. Subsequently, supernatants were collected (after centrifugation at 300 g for 10 minutes) to determine the concentrations of IL-17 by HTRF (CisBio, France) or ELISA (R&D Systems Europe) according to the manufacturer's protocols.

Assay [2] addresses T1, human RORγt (Homo sapiens, UniProt P51449).
T1 construct: the full-length cDNA of human RORγt; expressed in transfected cells; host or cells: COS-7 (monkey kidney)
T1 sequence (P51449 1-497 isoform P51449-2): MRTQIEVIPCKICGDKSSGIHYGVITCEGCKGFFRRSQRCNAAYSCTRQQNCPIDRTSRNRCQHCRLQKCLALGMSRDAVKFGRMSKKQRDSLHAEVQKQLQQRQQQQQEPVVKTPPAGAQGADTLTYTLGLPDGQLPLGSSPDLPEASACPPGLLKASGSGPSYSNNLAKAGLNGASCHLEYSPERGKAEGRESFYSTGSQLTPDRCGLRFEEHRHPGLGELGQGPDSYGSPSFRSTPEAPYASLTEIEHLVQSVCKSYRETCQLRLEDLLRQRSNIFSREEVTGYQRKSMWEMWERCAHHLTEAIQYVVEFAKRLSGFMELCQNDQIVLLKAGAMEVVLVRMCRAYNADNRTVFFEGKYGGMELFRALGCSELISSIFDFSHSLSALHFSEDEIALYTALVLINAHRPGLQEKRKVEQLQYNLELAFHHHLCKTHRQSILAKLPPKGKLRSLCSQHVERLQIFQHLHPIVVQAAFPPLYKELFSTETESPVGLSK
The assay can be described thus: RORE Luciferase/RORγt transactivation assay. The format is cell-based. Conditions: COS-7 cells transfected with human IL-17 promoter luciferase reporter and RORγt plasmid; 20 h with compound; read-out: IC50, RORγt activity inhibition. In outline:
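COS-7 cells were transiently co-transfected with a human IL-17 promoter (RORE/CNS)–luciferase reporter and a RORγt expression plasmid, then seeded at 10000 cells/well in serum-free, phenol red-free DMEM. Compounds were added at 0.3% DMSO final. Luciferase was read with Steady-Glo, and IC50 and Emax were derived.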
In general terms: Reporter assays use an easily measured gene product as a stand-in for the process of interest.

As usually defined, the IC50 is the point on the concentration scale where inhibition reaches its midpoint. Regarding `Cc1ccc(C(NC(=O)Cc2ccc3c(c2)CN(S(C)(=O)=O)C3)c2ccc(C)o2)c(N2CCCCC2)c1` (stereo not drawn) [Cpd. 41, 2-(2-methanesulfonyl-2,3-dihydro-1H-isoindol-5-yl)-N-{[4-methyl-2-(piperidin-1-yl)phenyl](5-methylfuran-2-yl)methyl}acetamide], the values for the IC50 in assay [1] and in assay [2] were below 100 nM and 10 to 100 nM, respectively.

As to `Cc1ccc(C(NC(=O)Cc2ccc3c(c2)C(=NO)C(=O)N3)c2ccc(C)o2)c(N2CCCCC2)c1` (stereo not drawn) [Cpd. 42, 2-[3-(hydroxyimino)-2-oxo-2,3-dihydro-1H-indol-5-yl]-N-{[4-methyl-2-(piperidin-1-yl)phenyl](5-methylfuran-2-yl)methyl}acetamide], the IC50 in assay [1] and in assay [2] was 100 to 1000 nM each time.

`Cc1ccc(C(NC(=O)Cc2cc(C)c3c(c2)CC(=O)N3)c2ccc(C)o2)c(N2CCCCC2)c1` (stereo not drawn) [Cpd. 54, N-{[4-methyl-2-(piperidin-1-yl)phenyl](5-methylfuran-2-yl)methyl}-2-(7-methyl-2-oxo-2,3-dihydro-1H-indol-5-yl)acetamide]: the IC50 was below 100 nM in assay [1] and 10 to 100 nM in assay [2].

`Cc1ccc(C(NC(=O)Cc2ccc3[nH]cc(CCO)c3c2)c2ccc(C)o2)c(N2CCCCC2)c1` (stereo not drawn) [Cpd. 57, 2-[3-(2-hydroxyethyl)-1H-indol-5-yl]-N-{[4-methyl-2-(piperidin-1-yl)phenyl](5-methylfuran-2-yl)methyl}acetamide]: the figures for the IC50 in assay [1] and in assay [2] were below 100 nM and 10 to 100 nM, respectively.

With `Cc1ccc(C(NC(=O)Cc2ccc3[nH]cc(CO)c3c2)c2ccc(C)o2)c(N2CCCCC2)c1` (stereo not drawn) [Cpd. 58, 2-[3-(hydroxymethyl)-1H-indol-5-yl]-N-{[4-methyl-2-(piperidin-1-yl)phenyl](5-methylfuran-2-yl)methyl}acetamide], the results for the IC50 in assay [1] and in assay [2] were below 100 nM and 10 to 100 nM, respectively.

Turning to `Cc1ccc(C(NC(=O)C2(c3ccc4c(c3)CC(=O)N4)CC2)c2ccc(C)o2)c(C)c1` (stereo not drawn) [Cpd. 61, N-[(2,4-dimethylphenyl)(5-methylfuran-2-yl)methyl]-1-(2-oxo-2,3-dihydro-1H-indol-5-yl)cyclopropane-1-carboxamide], the IC50 in assay [1] was below 100 nM; in assay [2] it was below 10 nM.

Take `Cc1ccc(C(NC(=O)C2(c3ccc4[nH]cc(CCO)c4c3)CC2)c2ccc(Cl)o2)c(C)c1` (stereo not drawn) [Cpd. 62, N-[(5-chlorofuran-2-yl)(2,4-dimethylphenyl)methyl]-1-[3-(2-hydroxyethyl)-1H-indol-5-yl]cyclopropane-1-carboxamide]: the IC50 in assay [1] was below 100 nM; in assay [2], 10 to 100 nM.

`Cc1ccc(C(NC(=O)C2(c3ccc4c(c3)CS(=O)(=O)C4)CC2)c2ccc(Cl)o2)c(C)c1` (stereo not drawn) [Cpd. 72, N-[(5-chlorofuran-2-yl)(2,4-dimethylphenyl)methyl]-1-(2,2-dioxo-1,3-dihydro-2-benzothiophen-5-yl)cyclopropane-1-carboxamide]: the IC50 lay within 100 to 1000 nM in assay [1] and 10 to 100 nM in assay [2].

Take `Cc1ccc(C(NC(=O)C2(c3ccc4c(c3)CN(S(C)(=O)=O)C4)CC2)c2ccc(C)o2)c(N2CCCC2)c1` (stereo not drawn) [Cpd. 73, 1-(2-methanesulfonyl-2,3-dihydro-1H-isoindol-5-yl)-N-{[4-methyl-2-(pyrrolidin-1-yl)phenyl](5-methylfuran-2-yl)methyl}cyclopropane-1-carboxamide]: the IC50 in assay [1] was below 100 nM; in assay [2], 10 to 100 nM.

Regarding `Cc1ccc(C(NC(=O)C2(c3ccc4c(c3)CN(S(C)(=O)=O)C4)CC2)c2ccc(C)o2)c(N(C)C)c1` (stereo not drawn) [Cpd. 76, N-{[2-(dimethylamino)-4-methylphenyl](5-methylfuran-2-yl)methyl}-1-(2-methanesulfonyl-2,3-dihydro-1H-isoindol-5-yl)cyclopropane-1-carboxamide], the half-inhibitory concentration (IC50) in assay [1] fell in the range of 100 to 1000 nM; in assay [2] it was 10 to 100 nM.

Consider `Cc1ccc(C(NC(=O)Cc2ccc3c(c2)CS(=O)(=O)C3)c2ccc(C)o2)c(N2CCCCC2)c1` (stereo not drawn) [Cpd. 78, 2-(2,2-dioxo-1,3-dihydro-2-benzothiophen-5-yl)-N-{[4-methyl-2-(piperidin-1-yl)phenyl](5-methylfuran-2-yl)methyl}acetamide], for which the IC50 lay within 100 to 1000 nM in assay [1] and 10 to 100 nM in assay [2].

`Cc1ccc(C(NC(=O)Cc2ccc3c(c2)CN(S(C)(=O)=O)C3)c2ccc(Cl)o2)c(N2CCCCC2)c1` (stereo not drawn) [Cpd. 79, N-[(5-chlorofuran-2-yl)[4-methyl-2-(piperidin-1-yl)phenyl]methyl]-2-(2-methanesulfonyl-2,3-dihydro-1H-isoindol-5-yl)acetamide]: the figures for the IC50 in assay [1] and in assay [2] were 100 to 1000 nM and 10 to 100 nM, respectively.

`Cc1ccc(C(NC(=O)C2(c3ccc4c(c3)CN(S(C)(=O)=O)C4)CC2)c2ccc(Cl)o2)c(N2CCCC2)c1` (stereo not drawn) [Cpd. 80, N-[(5-chlorofuran-2-yl)[4-methyl-2-(pyrrolidin-1-yl)phenyl]methyl]-1-(2-methanesulfonyl-2,3-dihydro-1H-isoindol-5-yl)cyclopropane-1-carboxamide]: the IC50 in assay [1] was in the range of 100 to 1000 nM; in assay [2], 10 to 100 nM.

As for `Cc1ccc(C(NC(=O)Cc2ccc3c(c2)CC(=O)N3)c2ccc(Cl)o2)c(N2CCCCC2)c1` (stereo not drawn) [Cpd. 83, N-[(5-chlorofuran-2-yl)[4-methyl-2-(piperidin-1-yl)phenyl]methyl]-2-(2-oxo-2,3-dihydro-1H-indol-5-yl)acetamide], the IC50 in assay [1] lay in the range of 100 to 1000 nM; in assay [2] it was 10 to 100 nM.

As for `Cc1ccc(C(NC(=O)Cc2ccc3[nH]c(N4CCOCC4)nc3c2)c2ccc(C)o2)c(N2CCCCC2)c1` (stereo not drawn) [Cpd. 93, N-{[4-methyl-2-(piperidin-1-yl)phenyl](5-methylfuran-2-yl)methyl}-2-[2-(morpholin-4-yl)-1H-1,3-benzodiazol-5-yl]acetamide], the IC50 in assay [1] is below 100 nM; in assay [2], 10 to 100 nM.

On to `Cc1ccc(C(NC(=O)Cc2ccc3[nH]cc(C(=O)CS(C)(=O)=O)c3c2)c2ccc(C)o2)c(N2CCCCC2)c1` (stereo not drawn) [Cpd. 103, 2-[3-(2-methanesulfonylacetyl)-1H-indol-5-yl]-N-{[4-methyl-2-(piperidin-1-yl)phenyl](5-methylfuran-2-yl)methyl}acetamide], for which the IC50 in assay [1] was below 100 nM; in assay [2], 10 to 100 nM.

On to `Cc1ccc(C(NC(=O)Cc2ccc3[nH]cc(C(=O)CS(C)(=O)=O)c3c2)c2ccc(C)o2)c(Br)c1` (stereo not drawn) [Cpd. 104, N-[(2-bromo-4-methylphenyl)(5-methylfuran-2-yl)methyl]-2-[3-(2-methanesulfonylacetyl)-1H-indol-5-yl]acetamide], for which the IC50 in assay [1] was in the range of 1000 to 10000 nM; in assay [2], 100 to 1000 nM.

Take `Cc1ccc(C(NC(=O)Cc2ccc3c(ccn3S(C)(=O)=O)c2)c2ccc(C)o2)c(N2CCCCC2)c1` (stereo not drawn) [Cpd. 106, 2-(1-methanesulfonyl-1H-indol-5-yl)-N-{[4-methyl-2-(piperidin-1-yl)phenyl](5-methylfuran-2-yl)methyl}acetamide]: the IC50 in assay [1] is 100 to 1000 nM; in assay [2], 10 to 100 nM.

Regarding `Cc1ccc(C(NC(=O)Cc2ccc3[nH]cc(C(=O)CS(C)(=O)=O)c3c2)c2ccc(C)o2)c(C)c1` (stereo not drawn) [Cpd. 107, N-[(2,4-dimethylphenyl)(5-methylfuran-2-yl)methyl]-2-[3-(2-methanesulfonylacetyl)-1H-indol-5-yl]acetamide], the IC50 lay within 1000 to 10000 nM in assay [1] and 100 to 1000 nM in assay [2].

Turning to `Cc1ccc(C(NC(=O)C2(c3ccc4[nH]ccc4c3)CC2)c2ccc(C)o2)c(C)c1` (stereo not drawn) [Cpd. 108, N-[(2,4-dimethylphenyl)(5-methylfuran-2-yl)methyl]-1-(1H-indol-5-yl)cyclopropane-1-carboxamide], the IC50 in assay [1] was below 100 nM; in assay [2], 10 to 100 nM.

Take `Cc1ccc(C(NC(=O)Cc2ccc3[nH]cc(CCS(C)(=O)=O)c3c2)c2ccc(Cl)o2)c(N2CCCC2)c1` (stereo not drawn) [Cpd. 112, N-[(5-chlorofuran-2-yl)[4-methyl-2-(pyrrolidin-1-yl)phenyl]methyl]-2-[3-(2-methanesulfonylethyl)-1H-indol-5-yl]acetamide]: the figures for the IC50 in assay [1] and in assay [2] were 100 to 1000 nM and 10 to 100 nM, respectively.

The values above are taken from patent US11052092B2, “N-{[2-(piperidin-1-yl)phenyl](phenyl)methyl}-2-(3-oxo-3,4-dihydro-2H-1,4-benzoxazin-7-yl)acetamide derivatives and related compounds as ROR-gamma modulators for treating autoimmune diseases” (Genfit, priority 2017, dated 2021).
